The source of these data is PMC10108392, “Rimonabant-Based Compounds Bearing Hydrophobic Amino Acid Derivatives as Cannabinoid Receptor Subtype 1 Ligands” (ACS Medicinal Chemistry Letters, 2023).

What is called Ki is the dissociation constant of the complex between target and ligand, obtained from inhibition or displacement.

The experiment addresses T1, CB1R (Rattus norvegicus, UniProt P20272).
T1 construct: Crude membrane fractions were prepared from the brain; from tissue; host or cells: Wistar rat whole brain, crude membrane fraction
Kind of experiment: [3H]WIN55,212-2 radioligand competition binding assay in rat brain membrane homogenate. To be noted: read-out: Ki [3H]WIN55,212-2 binding, 5 nM [3H]WIN55,212-2, ± SEM, n.b. = no binding of ligands was observed. The procedure:
Our novel chemical compounds were tested in vitro for their binding ability, efficacy, and potency on CB1R in rat brain membrane homogenate (Table 2 and SI, Figure S1). CB1Rs are the most abundant G-protein coupled receptors in the rodent and mammalian brain; therefore, this is an appropriate model to characterize our ligands in a more physiological system.
In Vitro Biological Assays
Preparation of Brain Membrane Homogenates
Wistar rats were locally bred and handled according to the EU Directive 2010/63/EU and to the Regulations on Animal Protection (40/2013. (II. 14.) Korm. r.) of Hungary. Crude membrane fractions were prepared from the brain. Brains were quickly removed from the euthanized rats and directly put in an ice-cold 50 mM Tris-HCl buffer (pH 7.4). The collected tissue was then homogenized in 30 volumes (v/w) of an ice-cold buffer with a Braun Teflon-glass homogenizer at the highest rpm. The homogenate was centrifuged at 20,000 × g for 25 min, and the resulting pellet was suspended in the same volume of a cold buffer followed by incubation at 37 °C for 30 min to remove endogenous ligands. Centrifugation was then repeated. The final pellets were taken up in five volumes of a 50 mM Tris-HCl (pH 7.4) buffer containing 0.32 M sucrose and stored at -80 °C. Prior to the experiment, aliquots were thawed and centrifuged at 20,000 ×g for 25 min and then they were resuspended in 50 mM Tris-HCl (pH 7.4), homogenized with a Douncer, followed by the determination of the protein concentration by the method of Bradford. The membrane suspensions were immediately used either in radioligand binding experiments or in [35S]GTPγS functional assays.
Radioligand Competition Binding Assay
Binding experiments were performed at 30 °C for 60 min in a 50 mM Tris-HCl binding buffer (pH 7.4) containing 2.5 mM of EGTA, 5 mM of MgCl2 and 0.5 mg/mL of fatty acid-free BSA in plastic tubes in a total assay volume of 1 mL that contained 0.3-0.5 mg/mL of a membrane protein. Competition binding […]
ligands. […] The incubation […]
was terminated by diluting the samples with an ice-cold wash buffer (50 mM of Tris-HCl, 2.5 mM of EGTA, 5 mM of MgCl2, 0.5% fatty acid free BSA, pH 7.4), followed by repeated washing and rapid filtration through Whatman GF/B glass fiber filters (Whatman Ltd., Maidstone, UK) pre-soaked with 0.1% polyethyleneimine (30 min before the filtration). Filtration was performed with a 24-well Brandel Cell Harvester (Gaithersburg, MD, USA). Filters were air-dried and immersed into Ultima Gold MV scintillation cocktail, and then radioactivity was measured with a TRI-CARB 2100TR liquid scintillation analyzer (Packard, Perkin Elmer, Waltham, MA, USA). […]
The results of the competition binding studies are reported as means ± S.E.M. of at least three independent experiments each performed in duplicate. In competition binding studies, the inhibitory constants (Ki) were calculated from the inflection points of the displacement curves using non-linear least-square curve fitting and the Cheng-Prusoff equation, Ki= […]/(1 + [ligand]/Kd). […]

Structures are written as SMILES.

T1 sequence (P20272 whole entry): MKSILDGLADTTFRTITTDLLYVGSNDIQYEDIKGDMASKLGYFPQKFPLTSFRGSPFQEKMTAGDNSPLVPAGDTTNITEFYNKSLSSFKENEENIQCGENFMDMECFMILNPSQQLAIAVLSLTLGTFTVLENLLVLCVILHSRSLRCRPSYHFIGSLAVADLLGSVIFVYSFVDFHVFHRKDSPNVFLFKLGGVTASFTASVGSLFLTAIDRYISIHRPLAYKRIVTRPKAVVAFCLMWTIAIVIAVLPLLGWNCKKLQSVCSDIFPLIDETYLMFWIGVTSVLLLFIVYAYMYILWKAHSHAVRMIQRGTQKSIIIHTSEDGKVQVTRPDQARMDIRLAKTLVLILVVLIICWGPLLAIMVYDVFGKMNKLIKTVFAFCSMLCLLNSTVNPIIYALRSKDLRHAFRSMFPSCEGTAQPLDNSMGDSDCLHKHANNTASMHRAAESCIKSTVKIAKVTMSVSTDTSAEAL

On to `CNC(=O)[C@@H](NC(=O)c1nn(-c2ccc(Cl)cc2)c(-n2cccc2)c1C)C(C)(C)C` [Compound 34, RS2691-tLeu-NHCH3], for which the inhibition constant Ki turned out to be 6.9 ± 1.8 nM.
